Measured values: patent publication US20220062240A1, “METHODS OF TREATING CANCER USING A CLK INHIBITOR” (BioSplice Therapeutics, Inc., priority 2018, published 2022)
Where two headings read alike, the source gives them in different places.

What was measured:
[1] = tested on: lung cancer (4 cell lines); test: CellTiter-Glo Viability Assay, lung cancer; type: cell-based; conditions: Homo sapiens, inhibition of cancer cell proliferation
[2] = tested on: liver cancer (3 cell lines); test: CellTiter-Glo Viability Assay, liver cancer; type: cell-based; conditions: Homo sapiens, inhibition of cancer cell proliferation
[3] = tested on: ovarian cancer (4 cell lines); test: CellTiter-Glo Viability Assay, ovarian cancer; type: cell-based; conditions: Homo sapiens, inhibition of cancer cell proliferation
[4] = target: CLK3 (Homo sapiens, UniProt P49761); test: CLK3 kinase activity assay (Z-lyte, Ser/Thr 18 peptide)
[5] = tested on: all 50 cell lines; test: CellTiter-Glo Viability Assay, average across all cell lines; type: cell-based; conditions: Homo sapiens; across all 50 cell lines; read-out: average EC50 for inhibition of cancer cell proliferation
In short: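 Luminescent ATP read-out (CellTiter-Glo) after a 4-day compound exposure at 37° C served as the viability measure. Cells were seeded at 300-3,000/well, compound wells run in duplicate against DMSO controls, and EC50 values came from fitted dose-response curves.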

[6] = target: T1, CLK2 (Homo sapiens, UniProt P49760); test: CLK2 kinase activity assay (Z-lyte, Ser/Thr 6 peptide); type: biochemical; conditions: recombinant CLK2 kinase, ATP 60 μM; read-out: EC50
T1 construct: purchased Thermo Fisher (Life Technologies), Z'-LYTE Kinase Assay Kits
Protocol: All reactions were performed in duplicate.

[7] = tested on: pancreatic cancer (8 cell lines); test: CellTiter-Glo Viability Assay, pancreatic cancer; type: cell-based; conditions: Homo sapiens, inhibition of cancer cell proliferation
[8] = tested on: haematopoietic & lymphoid tumors (13 cell lines); test: CellTiter-Glo Viability Assay, haematopoietic & lymphoid tumors; type: cell-based; conditions: Homo sapiens, inhibition of cancer cell proliferation
[9] = tested on: prostate cancer (5 cell lines); test: CellTiter-Glo Viability Assay, prostate cancer; type: cell-based; conditions: Homo sapiens
[10] = tested on: colorectal cancer (6 cell lines); test: CellTiter-Glo Viability Assay, colorectal cancer; type: cell-based; conditions: Homo sapiens, inhibition of cancer cell proliferation
[11] = tested on: DU4475; test: CellTiter-Glo Viability Assay, breast cancer; type: cell-based; conditions: Homo sapiens, DU-4475, 96 h; DU4475, breast cancer, four days; read-out: EC50
[12] = tested on: ZR-75-1; test: CellTiter-Glo Viability Assay, breast cancer; type: cell-based; conditions: Homo sapiens, 96 h; ZR-75-1, breast cancer, four days; read-out: EC50
[13] = tested on: MCF7; test: CellTiter-Glo Viability Assay, breast cancer; type: cell-based; conditions: Homo sapiens, 96 h; MCF7, breast cancer, four days; read-out: EC50
[14] = tested on: T47D; test: CellTiter-Glo Viability Assay, breast cancer; type: cell-based; conditions: Homo sapiens, 96 h, breast cancer, four days, read-out: EC50
[15] = tested on: HCC1599; test: CellTiter-Glo Viability Assay, breast cancer; type: cell-based; conditions: Homo sapiens, 96 h; HCC1599, breast cancer, four days; read-out: EC50
[16] = tested on: BT-549; test: CellTiter-Glo Viability Assay, breast cancer; type: cell-based; conditions: Homo sapiens, 96 h; BT-549, breast cancer, four days; read-out: EC50
[17] = tested on: MDA-MB-231-Luc; test: CellTiter-Glo Viability Assay, breast cancer; type: cell-based; conditions: Homo sapiens, 96 h; MDA-MB-231-Luc, breast cancer, four days; read-out: EC50
[18] = tested on: CAMA1; test: CellTiter-Glo Viability Assay, breast cancer; type: cell-based; conditions: Homo sapiens, CAMA-1, 96 h; CAMA1, breast cancer, four days; read-out: EC50

T1 sequence (P49760 whole entry): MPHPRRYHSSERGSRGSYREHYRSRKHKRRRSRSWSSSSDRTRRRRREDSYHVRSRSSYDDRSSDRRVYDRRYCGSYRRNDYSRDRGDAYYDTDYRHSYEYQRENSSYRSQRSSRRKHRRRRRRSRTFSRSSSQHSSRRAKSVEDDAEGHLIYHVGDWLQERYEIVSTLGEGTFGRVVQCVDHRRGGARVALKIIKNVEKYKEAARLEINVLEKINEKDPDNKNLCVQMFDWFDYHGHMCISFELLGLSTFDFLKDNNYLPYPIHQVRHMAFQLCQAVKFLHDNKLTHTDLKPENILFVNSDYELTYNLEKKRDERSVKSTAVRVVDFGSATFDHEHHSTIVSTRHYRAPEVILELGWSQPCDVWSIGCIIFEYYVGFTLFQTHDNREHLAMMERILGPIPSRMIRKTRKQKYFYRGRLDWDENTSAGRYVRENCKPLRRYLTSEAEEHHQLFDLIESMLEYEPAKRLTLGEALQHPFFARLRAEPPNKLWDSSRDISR
Chain of CLK3 (P49761 whole entry): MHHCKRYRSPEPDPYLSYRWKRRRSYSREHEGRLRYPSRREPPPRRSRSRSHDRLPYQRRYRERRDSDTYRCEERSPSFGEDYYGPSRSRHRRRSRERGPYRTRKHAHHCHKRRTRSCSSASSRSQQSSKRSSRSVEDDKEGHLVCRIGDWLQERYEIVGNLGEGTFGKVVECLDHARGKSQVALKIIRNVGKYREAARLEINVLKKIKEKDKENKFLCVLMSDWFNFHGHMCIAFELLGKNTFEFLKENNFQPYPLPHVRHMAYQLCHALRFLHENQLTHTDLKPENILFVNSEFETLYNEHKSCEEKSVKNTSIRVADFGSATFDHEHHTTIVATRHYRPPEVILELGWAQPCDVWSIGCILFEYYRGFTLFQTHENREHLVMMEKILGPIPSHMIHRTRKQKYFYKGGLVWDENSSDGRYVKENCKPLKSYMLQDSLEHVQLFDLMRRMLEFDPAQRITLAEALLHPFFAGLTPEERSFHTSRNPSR

EC50 ([1]; A-427, A427 cell line, read-out: Lung cancer, EC50 (μM) A427): 0.35 µM | EC50 ([1]; HCC78, HCC-78 cell line, read-out: Lung cancer, EC50 (μM) HCC-78): 1.69 µM | EC50 ([1]; NCI-H460 cell line, read-out: Lung cancer, EC50 (μM) NCI-H460): 2.65 µM | EC50 ([1]; NCI-H522 cell line, read-out: Lung cancer, EC50 (μM) NCI-H522): 0.191 µM | EC50 ([2]; SNU-398, SNU398 cell line, read-out: Liver cancer, EC50 SNU398): 120 nM | EC50 ([2]; HEPG2 cell line, read-out: Liver cancer, EC50 HEPG2): 452 nM | EC50 ([2]; PLC/PRF/5 cell line, read-out: Liver cancer, EC50 PLC/PRF/5): 2030 nM | EC50 ([3]; PA-1, PA1 cell line, read-out: Ovarian cancer, EC50 (μM) PA1): 0.405 µM | EC50 ([3]; TOV112D, TOV-112D cell line, read-out: Ovarian cancer, EC50 (μM) TOV-112D): 0.475 µM | EC50 ([3]; OV-90 cell line, read-out: Ovarian cancer, EC50 (μM) OV-90): 1.08 µM | EC50 ([3]; OVCAR-3 cell line, read-out: Ovarian cancer, EC50 (μM) OVCAR-3): 0.116 µM | EC50 [4]: 12.8 nM | EC50 [6]: 0.9 nM | EC50 ([7]; BXPC-3, BxPC3 cell line, read-out: Pancreatic cancer, EC50 BxPC3): 2680 nM | EC50 ([7]; CAPAN-1, Capan1 cell line, read-out: Pancreatic cancer, EC50 Capan1): 1900 nM | EC50 ([7]; Capan-2, Capan2 cell line, read-out: Pancreatic cancer, EC50 Capan2): 1280 nM | EC50 ([7]; MIA PaCa-2 cell line, read-out: Pancreatic cancer, EC50 MIA PaCa-2): 331 nM | EC50 ([7]; PANC 05.04 cell line, read-out: Pancreatic cancer, EC50 PANC 05.04): 1170 nM | EC50 ([7]; PANC-1 cell line, read-out: Pancreatic cancer, EC50 PANC-1): 3850 nM | EC50 ([7]; UPAFII cell line, read-out: Pancreatic cancer, EC50 UPAFII): 397 nM | EC50 ([8]; DND41, DND-41 cell line, read-out: Haematopoietic & Lymphoid tumors, EC50 (μM) DND-41): 0.154 µM | EC50 ([8]; MV4-11, MV-4-11 cell line, read-out: Haematopoietic & Lymphoid tumors, EC50 (μM) MV-4-11): 0.088 µM | EC50 ([8]; Rec1, REC-1 cell line, read-out: Haematopoietic & Lymphoid tumors, EC50 (μM) REC-1): 1.45 µM | EC50 ([8]; SU-DHL-4, SUDHL4 cell line, read-out: Haematopoietic & Lymphoid tumors, EC50 (μM) SUDHL4): 0.641 µM | EC50 ([8]; HL-60 cell line, read-out: Haematopoietic & Lymphoid tumors, EC50 (μM) HL-60): 3.24 µM | EC50 ([8]; JM1 cell line, read-out: Haematopoietic & Lymphoid tumors, EC50 (μM) JM1): 0.121 µM | EC50 ([8]; JURKAT, Clone E6-1 cell line, read-out: Haematopoietic & Lymphoid tumors, EC50 (μM) JURKAT, Clone E6-1): 1.42 µM | EC50 ([8]; JeKo-1 cell line, read-out: Haematopoietic & Lymphoid tumors, EC50 (μM) JeKo-1): 0.039 µM | EC50 ([8]; KASUMI-1 cell line, read-out: Haematopoietic & Lymphoid tumors, EC50 (μM) KASUMI-1): 0.685 µM | EC50 ([8]; Loucy cell line, read-out: Haematopoietic & Lymphoid tumors, EC50 (μM) Loucy): 0.207 µM | EC50 ([8]; MOLT-4 cell line, read-out: Haematopoietic & Lymphoid tumors, EC50 (μM) MOLT-4): 0.503 µM | EC50 ([8]; TF-1 cell line, read-out: Haematopoietic & Lymphoid tumors, EC50 (μM) TF-1): 3.05 µM | EC50 ([8]; TOLEDO cell line, read-out: Haematopoietic & Lymphoid tumors, EC50 (μM) TOLEDO): 0.219 µM | EC50 ([9]; DU-145, read-out: Prostate cancer EC50 Du-145): 1190 nM | EC50 ([9]; PC-3, PC3 cell line, inhibition of cancer cell proliferation, read-out: Prostate cancer EC50 PC3): 831 nM | EC50 ([9]; 22Rv1 cell line, inhibition of cancer cell proliferation, read-out: Prostate cancer EC50 22Rv1): 360 nM | EC50 ([9]; LNCap clone FGC cell line, inhibition of cancer cell proliferation, read-out: Prostate cancer EC50 LNCap clone FGC): 4240 nM | EC50 ([9]; VCaP (Sigma) cell line, inhibition of cancer cell proliferation, read-out: Prostate cancer EC50 VCaP (Sigma)): 3470 nM | EC50 ([10]; HCT-116, HCT116 cell line, read-out: Colorectal cancer, EC50 (μM) HCT116): 0.639 µM | EC50 ([10]; HT-29, HT29 cell line, read-out: Colorectal cancer, EC50 (μM) HT29): 2.52 µM | EC50 ([10]; SW-620, SW620 cell line, read-out: Colorectal cancer, EC50 (μM) SW620): 0.455 µM | EC50 ([10]; DLD-1 cell line, read-out: Colorectal cancer, EC50 (μM) DLD-1): 1.76 µM | EC50 ([10]; SW48 cell line, read-out: Colorectal cancer, EC50 (μM) SW48): 0.174 µM | EC50 ([10]; SW480 cell line, read-out: Colorectal cancer, EC50 (μM) SW480): 0.486 µM | EC50 [11]: 169 nM | EC50 [12]: 738 nM | EC50 [13]: 1600 nM | EC50 [14]: 296 nM | EC50 [15]: 57 nM | EC50 [16]: 734 nM | EC50 [17]: 557 nM | EC50 [18]: 252 nM
Structure (SMILES): CN1CCN(c2ccc(NC(=O)c3n[nH]c4ccc(-c5cncc(NC(=O)C6CC6)c5)cc34)cn2)CC1 [Compound 60]
EC50 [5]: 1070 nM
